Experimental data from patent US5200505A, “R106 compounds” (Takara Shuzo Co., Ltd., priority 1990, dated 1993).
Numbered stars: 1 amine (or outer) side, 2 acyl side, 3 side chain; on linkers, the order of the positions; unused ones are H or OH. Square brackets hold non-standard residues; d marks the D form. Peptide text beside a SMILES is read from it. NMePhe(3-F) = CN[C@@H](Cc1cccc(F)c1)C(=O)O; NMePhe(2-F) = CN[C@@H](Cc1ccccc1F)C(=O)O; NMeVal(β-OH) = CN[C@H](C(=O)O)C(C)(C)O; Phe(3-F) = N[C@@H](Cc1cccc(F)c1)C(=O)O; Phe(2-F) = N[C@@H](Cc1ccccc1F)C(=O)O; NMeY = CN[C@@H](Cc1ccc(O)cc1)C(=O)O; NMeF = CN[C@@H](Cc1ccccc1)C(=O)O; aIle = CC[C@@H](C)[C@H](N)C(=O)O; X1 = CCC(C)C(O[*:1])C(=O)[*:2]; NMeV = CN[C@H](C(=O)O)C(C)C; NMeS = CN[C@@H](CO)C(=O)O; Thz = O=C(O)[C@@H]1CSCN1

Test: Solubility in water
Assay type: physicochemical
Conditions: compared with antibiotics R106

Row | SMILES | solubility in water
1 | CCC(C)C1OC(=O)[C@H](C(C)(C)O)N(C)C(=O)[C@H](CC(C)C)NC(=O)[C@H](C(C)C)N(C)C(=O)[C@H]([C@H](C)CC)NC(=O)[C@@H]2CCCN2C(=O)[C@H](Cc2ccccc2F)N(C)C(=O)[C@H](Cc2ccccc2F)NC(=O)[C@H](C(C)C)N(C)C1=O (stereo partly drawn) [Compound 1] (cyclo(L[NMeVal(β-OH)][X1][NMeV][Phe(2-F)][NMePhe(2-F)]P[aIle][NMeV])) | higher
2 | CCC(C)C1OC(=O)[C@H](C(C)(C)O)N(C)C(=O)[C@H](CC(C)C)NC(=O)[C@H](C(C)C)N(C)C(=O)[C@H]([C@H](C)CC)NC(=O)[C@@H]2CCCN2C(=O)[C@H](Cc2cccc(F)c2)N(C)C(=O)[C@H](Cc2cccc(F)c2)NC(=O)[C@H](C(C)C)N(C)C1=O (stereo partly drawn) [Compound 2] (cyclo(L[NMeVal(β-OH)][X1][NMeV][Phe(3-F)][NMePhe(3-F)]P[aIle][NMeV])) | higher
3 | CCC(C)C1OC(=O)[C@H](C(C)(C)O)N(C)C(=O)[C@H](CC(C)C)NC(=O)[C@H](C(C)C)N(C)C(=O)[C@H]([C@H](C)CC)NC(=O)[C@@H]2CCCN2C(=O)[C@H](Cc2ccc(O)cc2)N(C)C(=O)[C@H](Cc2ccc(O)cc2)NC(=O)[C@H](C(C)C)N(C)C1=O (stereo partly drawn) [Compound 3] (cyclo(L[NMeVal(β-OH)][X1][NMeV]Y[NMeY]P[aIle][NMeV])) | higher
4 | CCC(C)C1OC(=O)[C@H](C(C)(C)O)N(C)C(=O)[C@H](CC(C)C)NC(=O)[C@H](C(C)C)N(C)C(=O)[C@H]([C@H](C)CC)NC(=O)[C@@H]2CSCN2C(=O)[C@H](Cc2ccccc2)N(C)C(=O)[C@H](Cc2ccccc2)NC(=O)[C@H](C(C)C)N(C)C1=O (stereo partly drawn) [Compound 5] (cyclo(F[NMeF][Thz][aIle][NMeV]L[NMeVal(β-OH)][X1][NMeV])) | higher
5 | CCC(C)C1OC(=O)[C@H](C(C)(C)O)N(C)C(=O)[C@H](CC(C)C)NC(=O)[C@H](C(C)C)N(C)C(=O)[C@H]([C@H](C)CC)NC(=O)[C@@H]2CCCN2C(=O)[C@H](CO)N(C)C(=O)[C@H](Cc2ccccc2)NC(=O)[C@H](C(C)C)N(C)C1=O (stereo partly drawn) [Compound 9] (cyclo(F[NMeS]P[aIle][NMeV]L[NMeVal(β-OH)][X1][NMeV])) | higher
